Experimental data as given in patent publication US20130157954A1, “METHODS FOR TREATMENT OR PROPHYLAXIS OF KIDNEY OR LIVER DYSFUNCTION” (NPS PHARMACEUTICALS, INC., priority 2010, published 2013).

Assay: Example 1: liver biomarkers (total bilirubin, ALT, AST, ALP) in short bowel syndrome patients, every four weeks for 24 weeks; also sorted by >5% change from baseline
Type: in vivo, Human
Details: for ALT (SGPT) change from baseline >5%, percent of patients / ALT (SGPT) change from baseline −5% <= and <=5%, number of patients / ALT (SGPT) change from baseline −5% <= and <=5%, percent of patients / AST (SGOT) change from baseline <−5%, number of patients / AST (SGOT) change from baseline <−5%, percent of patients / AST (SGOT) change from baseline >5%, number of patients / AST (SGOT) change from baseline >5%, percent of patients / AST (SGOT) change from baseline −5% <= and <=5%, number of patients / AST (SGOT) change from baseline −5% <= and <=5%, percent of patients / TOTAL BILIRUBIN change from baseline <−5%, number of patients / TOTAL BILIRUBIN change from baseline <−5%, percent of patients / TOTAL BILIRUBIN change from baseline >5%, number of patients / TOTAL BILIRUBIN change from baseline >5%, percent of patients / TOTAL BILIRUBIN change from baseline −5% <= and <=5%, number of patients / TOTAL BILIRUBIN change from baseline −5% <= and <=5%, percent of patients / ALKALINE PHOSPHATASE change from baseline <−5%, number of patients / ALKALINE PHOSPHATASE change from baseline <−5%, percent of patients / ALKALINE PHOSPHATASE change from baseline >5%, number of patients / ALKALINE PHOSPHATASE change from baseline >5%, percent of patients / ALKALINE PHOSPHATASE change from baseline −5% <= and <=5%, number of patients / ALKALINE PHOSPHATASE change from baseline −5% <= and <=5%, percent of patients / ALT (SGPT) change from baseline <−5%, number of patients / ALT (SGPT) change from baseline <−5%, percent of patients / ALT (SGPT) change from baseline >5%, number of patients: 0.1 mg/kg/day
Description: Human patients with short bowel syndrome were divided into three groups: a control group (16 total individuals) to receive placebo, an experimental group (35 total individuals) to receive teduglutide at 0.05 mg/kg/day throughout the study, and an experimental group (32 total individuals) to receive teduglutide at 0.1 mg/kg/day throughout the study. Patients were treated by subcutaneous injection of placebo or the appropriate dose of teduglutide. As individuals with short bowel syndrome are likely to experience associated liver and kidney disease, known biomarkers of liver and kidney function were monitored every four weeks, for 24 weeks. The liver biomarkers tested included total bilirubin, ALT and AST and ALP. The kidney biomarkers tested included urea nitrogen, creatinine and GFR. Before administration of placebo or teduglutide, diagnostic biomarker levels were tested to establish a baseline for each individual.
To visualize the effect of GLP-2 on the levels of the diagnostic biomarkers, the average change from baseline was calculated for the placebo and teduglutide treated groups for each visit after a baseline was established. The average change from baseline of each group is depicted in FIGS. 1-7. The numerical figures for each diagnostic biomarker at each time point are depicted in Table 1.
The efficacy of teduglutide in treating liver dysfunction was further tested by sorting the data into two groups: individuals with abnormal baseline values of liver diagnostic biomarkers; and individuals with normal baseline values of liver diagnostic biomarkers. The mean diagnostic biomarker change from baseline for these two groups is shown for ALT (FIGS. 5 and 6) and AST (FIGS. 7 and 8). […] These changes were significant when compared to baseline levels for the group, and when compared to placebo (see FIGS. 5 and 7).
The raw data for this sorting is reproduced in Table 2 below.

Question: Which results are given for `CC[C@H](C)[C@H](NC(=O)[C@H](Cc1ccccc1)NC(=O)[C@H](CC(=O)O)NC(=O)[C@H](CCCNC(=N)N)NC(=O)[C@H](C)NC(=O)[C@H](C)NC(=O)[C@H](CC(C)C)NC(=O)[C@H](CC(N)=O)NC(=O)[C@H](CC(=O)O)NC(=O)[C@H](CC(C)C)NC(=O)[C@@H](NC(=O)[C@@H](NC(=O)[C@H](CC(N)=O)NC(=O)[C@H](CCSC)NC(=O)[C@H](CCC(=O)O)NC(=O)[C@H](CC(=O)O)NC(=O)[C@H](CO)NC(=O)[C@H](Cc1ccccc1)NC(=O)[C@H](CO)NC(=O)CNC(=O)[C@H](CC(=O)O)NC(=O)CNC(=O)[C@@H](N)Cc1c[nH]cn1)[C@@H](C)O)[C@@H](C)CC)C(=O)N[C@@H](CC(N)=O)C(=O)N[C@@H](Cc1c[nH]c2ccccc12)C(=O)N[C@@H](CC(C)C)C(=O)N[C@H](C(=O)N[C@@H](CCC(N)=O)C(=O)N[C@H](C(=O)N[C@@H](CCCCN)C(=O)N[C@H](C(=O)N[C@H](C(=O)N[C@@H](CC(=O)O)C(=O)O)[C@@H](C)O)[C@@H](C)CC)[C@@H](C)O)[C@@H](C)CC` [teduglutide]?
Answer: ALT (SGPT) change from baseline >5%, percent of patients (week 12): (21.9%); ALT (SGPT) change from baseline −5% <= and <=5%, number of patients (week 12): 2; ALT (SGPT) change from baseline −5% <= and <=5%, percent of patients (week 12): (6.3%); AST (SGOT) change from baseline <−5%, number of patients (week 12): 15; AST (SGOT) change from baseline <−5%, percent of patients (week 12): (46.9%); AST (SGOT) change from baseline >5%, number of patients (week 12): 10; AST (SGOT) change from baseline >5%, percent of patients (week 12): (31.3%); AST (SGOT) change from baseline −5% <= and <=5%, number of patients (week 12): 3; AST (SGOT) change from baseline −5% <= and <=5%, percent of patients (week 12): (9.4%); TOTAL BILIRUBIN change from baseline <−5%, number of patients (week 12): 14; TOTAL BILIRUBIN change from baseline <−5%, percent of patients (week 12): (43.8%); TOTAL BILIRUBIN change from baseline >5%, number of patients (week 12): 9; TOTAL BILIRUBIN change from baseline >5%, percent of patients (week 12): (28.1%); TOTAL BILIRUBIN change from baseline −5% <= and <=5%, number of patients (week 12): 6; TOTAL BILIRUBIN change from baseline −5% <= and <=5%, percent of patients (week 12): (18.8%); ALKALINE PHOSPHATASE change from baseline <−5%, number of patients (week 16): 21; ALKALINE PHOSPHATASE change from baseline <−5%, percent of patients (week 16): (65.6%); ALKALINE PHOSPHATASE change from baseline >5%, number of patients (week 16): 7; ALKALINE PHOSPHATASE change from baseline >5%, percent of patients (week 16): (21.9%); ALKALINE PHOSPHATASE change from baseline −5% <= and <=5%, number of patients (week 16): 2; ALKALINE PHOSPHATASE change from baseline −5% <= and <=5%, percent of patients (week 16): (6.3%); ALT (SGPT) change from baseline <−5%, number of patients (week 16): 19; ALT (SGPT) change from baseline <−5%, percent of patients (week 16): (59.4%); ALT (SGPT) change from baseline >5%, number of patients (week 16): 9; ALT (SGPT) change from baseline >5%, percent of patients (week 16): (28.1%); ALT (SGPT) change from baseline −5% <= and <=5%, number of patients (week 16): 2; ALT (SGPT) change from baseline −5% <= and <=5%, percent of patients (week 16): (6.3%); AST (SGOT) change from baseline <−5%, number of patients (week 16): 18; AST (SGOT) change from baseline <−5%, percent of patients (week 16): (56.3%); AST (SGOT) change from baseline >5%, number of patients (week 16): 8; AST (SGOT) change from baseline >5%, percent of patients (week 16): (25.0%); AST (SGOT) change from baseline −5% <= and <=5%, number of patients (week 16): 3; AST (SGOT) change from baseline −5% <= and <=5%, percent of patients (week 16): (9.4%); TOTAL BILIRUBIN change from baseline <−5%, number of patients (week 16): 14; TOTAL BILIRUBIN change from baseline <−5%, percent of patients (week 16): (43.8%); TOTAL BILIRUBIN change from baseline >5%, number of patients (week 16): 6; TOTAL BILIRUBIN change from baseline >5%, percent of patients (week 16): (18.8%); TOTAL BILIRUBIN change from baseline −5% <= and <=5%, number of patients (week 16): 8; TOTAL BILIRUBIN change from baseline −5% <= and <=5%, percent of patients (week 16): (25.0%); ALKALINE PHOSPHATASE change from baseline <−5%, number of patients (week 20): 19; ALKALINE PHOSPHATASE change from baseline <−5%, percent of patients (week 20): (59.4%); ALKALINE PHOSPHATASE change from baseline >5%, number of patients (week 20): 9; ALKALINE PHOSPHATASE change from baseline >5%, percent of patients (week 20): (28.1%); ALKALINE PHOSPHATASE change from baseline −5% <= and <=5%, number of patients (week 20): 1; ALKALINE PHOSPHATASE change from baseline −5% <= and <=5%, percent of patients (week 20): (3.1%); ALT (SGPT) change from baseline <−5%, number of patients (week 20): 19; ALT (SGPT) change from baseline <−5%, percent of patients (week 20): (59.4%); ALT (SGPT) change from baseline >5%, number of patients (week 20): 8; ALT (SGPT) change from baseline >5%, percent of patients (week 20): (25.0%); ALT (SGPT) change from baseline −5% <= and <=5%, number of patients (week 20): 2; ALT (SGPT) change from baseline −5% <= and <=5%, percent of patients (week 20): (6.3%); AST (SGOT) change from baseline <−5%, number of patients (week 20): 16; AST (SGOT) change from baseline <−5%, percent of patients (week 20): (50.0%); AST (SGOT) change from baseline >5%, number of patients (week 20): 9; AST (SGOT) change from baseline >5%, percent of patients (week 20): (28.1%); AST (SGOT) change from baseline −5% <= and <=5%, number of patients (week 20): 3; AST (SGOT) change from baseline −5% <= and <=5%, percent of patients (week 20): (9.4%); TOTAL BILIRUBIN change from baseline <−5%, number of patients (week 20): 14; TOTAL BILIRUBIN change from baseline <−5%, percent of patients (week 20): (43.8%); TOTAL BILIRUBIN change from baseline >5%, number of patients (week 20): 9; TOTAL BILIRUBIN change from baseline >5%, percent of patients (week 20): (28.1%); TOTAL BILIRUBIN change from baseline −5% <= and <=5%, number of patients (week 20): 6; TOTAL BILIRUBIN change from baseline −5% <= and <=5%, percent of patients (week 20): (18.8%); ALKALINE PHOSPHATASE change from baseline <−5%, number of patients (week 24): 20; ALKALINE PHOSPHATASE change from baseline <−5%, percent of patients (week 24): (62.5%); ALKALINE PHOSPHATASE change from baseline >5%, number of patients (week 24): 5; ALKALINE PHOSPHATASE change from baseline >5%, percent of patients (week 24): (15.6%); ALKALINE PHOSPHATASE change from baseline −5% <= and <=5%, number of patients (week 24): 4; ALKALINE PHOSPHATASE change from baseline −5% <= and <=5%, percent of patients (week 24): (12.5%); ALT (SGPT) change from baseline <−5%, number of patients (week 24): 18; ALT (SGPT) change from baseline <−5%, percent of patients (week 24): (56.3%); ALT (SGPT) change from baseline >5%, number of patients (week 24): 11; ALT (SGPT) change from baseline >5%, percent of patients (week 24): (34.4%); ALT (SGPT) change from baseline −5% <= and <=5%, number of patients (week 24): 0; ALT (SGPT) change from baseline −5% <= and <=5%, percent of patients (week 24): (0.0%); AST (SGOT) change from baseline <−5%, number of patients (week 24): 15; AST (SGOT) change from baseline <−5%, percent of patients (week 24): (46.9%); AST (SGOT) change from baseline >5%, number of patients (week 24): 11; AST (SGOT) change from baseline >5%, percent of patients (week 24): (34.4%); AST (SGOT) change from baseline −5% <= and <=5%, number of patients (week 24): 3; AST (SGOT) change from baseline −5% <= and <=5%, percent of patients (week 24): (9.4%); TOTAL BILIRUBIN change from baseline <−5%, number of patients (week 24): 11; TOTAL BILIRUBIN change from baseline <−5%, percent of patients (week 24): (34.4%); TOTAL BILIRUBIN change from baseline >5%, number of patients (week 24): 10; TOTAL BILIRUBIN change from baseline >5%, percent of patients (week 24): (31.3%); TOTAL BILIRUBIN change from baseline −5% <= and <=5%, number of patients (week 24): 6; TOTAL BILIRUBIN change from baseline −5% <= and <=5%, percent of patients (week 24): (18.8%); fraction of individuals with a decrease of more than 5% in ALT vs placebo (beginning at 4 weeks after the commencement of treatment): greater fraction of individuals experiencing a decrease of more than 5%; ALT and AST change from baseline in patients with abnormal baseline values (FIGS. 5 and 7) (compared to baseline and compared to placebo): statistically significant improvements; average level of ALP relative to baseline (FIG. 4) (groups receiving teduglutide): decreased relative to baseline for the entire period of the study; percent of individuals with an increase of greater than 5% in ALP or ALT vs placebo (groups receiving teduglutide): effective prophylactic against increases in biomarkers associated with liver dysfunction; individuals experiencing a decrease in ALP greater than 5% from baseline (groups receiving teduglutide, within 4 weeks of the beginning of treatment): roughly 60%; average decrease in level of ALT compared to baseline (FIG. 1) (groups receiving teduglutide, maintained for the entire duration of the study): about 10 U/L
